The results in this text go back to paper PMC11271247 (SLAS discovery : advancing life sciences R & D, 2019).

Data set [1] concerns SKOV/NIH microtissues (SKOV-3 ovarian cancer cells + NIH3T3 fibroblasts). The class given is cell-based, human. The settings on record: read-out: IC50 ATP; SKOV/NIH spheroids, ATP content at treatment day 7.
Data set [2] concerns PANC/NIH microtissues (PANC-1 pancreatic cancer cells + NIH3T3 fibroblasts). In kind it is cell-based, human. The settings on record: read-out: IC50 ATP; PANC/NIH spheroids, ATP content at treatment day 7.
In data set [3] the test system is HEY/NIH microtissues (HEY-GFP ovarian cancer cells + NIH3T3 fibroblasts). In kind it is cell-based, human. The settings on record: read-out: IC50 ATP; HEY/NIH spheroids, ATP content at treatment day 7.
For data set [4], the system named is NIH3T3 fibroblasts within HEY/NIH microtissues. The settings on record: day 3.
For a further data set, the system named is HEY/NIH3T3 microtissues. Kind of data set: Microtissue size over time, HEY/NIH microtissues. The class given is cell-based, human. The settings on record: HEY/NIH3T3, % maximal response at 20 μM.
Data set [5] relates to NIH3T3 fibroblasts within SKOV/NIH microtissues.
Data set [6] relates to NIH3T3 fibroblasts within PANC/NIH microtissues. In kind it is cell-based, mouse. As to conditions: PANC1/NIH, day 3 (acute toxicity).

The IC50 is the concentration at which inhibition is half-maximal.

Turning to `C=CC(=O)Nc1cc2c(Nc3ccc(F)c(Cl)c3)ncnc2cc1C#CC(C)(C)N1CCN(C)CC1` [AV-412], the concentration for half-maximal inhibition (IC50) came out at 80 nM in data set [1], 2440 nM in data set [2] and 1290 nM in data set [3].
Take `COC(=O)[C@]12CCC(C)(C)C[C@H]1[C@H]1C(=O)C=C3[C@@]4(C)C=C(C#N)C(=O)C(C)(C)[C@@H]4CC[C@@]3(C)[C@]1(C)CC2` [Bardoxolone methyl]: the IC50 in data set [2] is 1340 nM.
For `CC(C)C[C@H](NC(=O)[C@H](CCc1ccccc1)NC(=O)CN1CCOCC1)C(=O)N[C@@H](Cc1ccccc1)C(=O)N[C@@H](CC(C)C)C(=O)[C@@]1(C)CO1` [Carfilzomib], the “therapeutic window, ratio of adverse to therapeutic effect” value in data set [4] turned out to be 578 fold.
Consider `O=C1C(Cl)=C(NCCN2CCOCC2)C(=O)c2ncccc21` [DA-3003-1], for which the IC50 in data set [3] amounted to 7360 nM.
In the case of `Cc1nc(Nc2ncc(C(=O)Nc3c(C)cccc3Cl)s2)cc(N2CCN(CCO)CC2)n1` [Dasatinib], the “effect on tumor size early in the treatment” value (shortened to “effect on tumor size early”) with HEY/NIH3T3 microtissues is reported as “reduce tumor size”.
Turning to `CNC(=O)[C@H](Cc1c[nH]c2ccccc12)NC(=O)[C@@H](CC(=O)NO)CC(C)C` [GM-6001], the IC50 is 3860 nM in data set [1] and 9610 nM in data set [2].
Consider `CC1=C(C(=O)Nc2cc3cn[nH]c3cc2F)C(c2ccc(Cl)cc2F)N=C(c2ccnc(Cl)c2)N1` (centres unmarked) [GSK-25], for which the half-inhibitory concentration (IC50) in data set [1] is 4830 nM; in data set [2] it was 9380 nM; in data set [3], 6100 nM.
On to `CN(C)CCCN=c1c2ccccc2n(C)c2[nH]c(=O)n(C)c(=O)c12` [HLI-373989], for which the IC50 in data set [3] amounted to 3760 nM.
On the same count and under the same terms, then `CSc1cccc(Nc2ncc3cc(-c4c(Cl)cccc4Cl)c(=O)n(C)c3n2)c1` [PD-173955], with 479 nM.
`Cc1ccc(/C=N/NC(=O)c2ccccc2Oc2ccccc2)o1` [PNU-74654]: the IC50 in data set [1] turned out to be 2840 nM.
As for `C/C=C1\NC(=O)[C@H]2CSSCC/C=C/[C@H](CC(=O)N[C@H](C(C)C)C(=O)N2)OC(=O)[C@H](C(C)C)NC1=O` [Romidepsin], the “viability of the stromal cells” value in data set [5] is “significantly lowered the viability of the stromal cells”.
`O=C(O)C1CCCN(CCC=C(c2ccccc2)c2ccccc2)C1` (centres unmarked) [SK&F-89976A]: the IC50 in data set [3] came to 15300 nM.
On to `Cc1ccc(-c2ncn(-c3ccc(Nc4nccc(-c5cccc(N6CCOCC6)c5)n4)cc3)n2)cn1` [SR-3306], for which the IC50 turned out to be 13 nM in data set [1], 22 nM in data set [2] and 58 nM in data set [3].
`Cn1c(=O)c(F)c(Nc2ccc(I)cc2F)c2c(=O)n(C[C@@H](O)CO)cnc21` [TAK-733]: in the data set on HEY/NIH3T3 microtissues, the “effect on tumor size early” value is given as “reduce tumor size”.
Turning to `Nc1ccc(-c2ccc3ncc4ccc(=O)n(-c5cccc(C(F)(F)F)c5)c4c3c2)cn1` [Torin-2], the 50% inhibitory concentration (IC50) in data set [1] is 2 nM; in data set [2] it was 1 nM; in data set [3] it was 27 nM. In addition, in data set [6], the “therapeutic window, ratio of adverse to therapeutic effect” value is 5,524 fold.
Turning to `c1cncc(CN2CCC(n3ncc4c(N5CCOCC5)nc(-c5ccc6[nH]ccc6c5)nc43)CC2)c1` [WAY-600], the IC50 turned out to be 507 nM in data set [1], 7380 nM in data set [2] and 1680 nM in data set [3]. For the same compound, the “effect on tumor size early” value in the data set with HEY/NIH3T3 microtissues is “reduce tumor size”.
